Data set [1] relates to Coxsackievirus. Briefly: Antiviral activity against CVB3. Format: functional, organism-based. As to conditions: B3.
Data set [2] can be described thus: Prodrug activation assessed as carboxypeptidase Y (unknown origin) mediated cleavage at ribose sugar region resulting in formation of 2R,3R,4R,5S)-2-(6-aminopurin-9-yl)-3-methyl-5-(sulfanylmethyl)tetrahydrofuran-3,4-diol measured after 120 mins by 13C-APT spectra analysis. The settings on record: human, 2 h.
Data set [3] has as its system Zika virus. Briefly: Antiviral activity against Zika virus. It is filed as functional, organism-based.
In data set [4] the test system is Human immunodeficiency virus. Briefly: Antiviral activity against HIV. Format: functional, organism-based.
Data set [5] is described as follows: Prodrug activation assessed as carboxypeptidase Y (unknown origin) mediated intermediate metabolite formation by P-NMR spectroscopy. Format: ADME. The settings on record: human.
A short description of data set [6]: Prodrug activation assessed as carboxypeptidase Y (unknown origin) mediated metabolite formation at 3.1 ppm measured after 5 mins by P-NMR spectroscopy. It is filed as ADME. The settings on record: human.
A short description of data set [7]: Prodrug activation assessed as carboxypeptidase Y (unknown origin) mediated cleavage of diastereoisomer measured after 120 mins by P-NMR spectroscopy. The settings on record: human, 2 h.
Data set [8] can be described thus: Prodrug activation assessed as carboxypeptidase Y (unknown origin) mediated cleavage of diastereoisomer measured after 5 mins by P-NMR spectroscopy. The settings on record: human.
Data set [9] has as its system Tick-borne encephalitis virus. Kind of data set: Antiviral activity against TBEV. Format: functional, organism-based.
Data set [10] is described as follows: Prodrug activation in human HepG2 cell extract assessed as metabolite formation at 100 uM measured after 4 hrs by HPLC analysis. As to conditions: hepg2, 4 h. It is filed as ADME, cell-based.
The test system of data set [11] is West Nile virus. Kind of data set: Antiviral activity against West Nile virus. Format: functional, organism-based.
For data set [12], the system named is Dengue virus. Kind of data set: Antiviral activity against Dengue virus. Format: functional, organism-based.
Data set [13] in a line: Prodrug activation assessed as carboxypeptidase Y (unknown origin) mediated cleavage at phenyl region resulting in formation of (2S)-2-[[hydroxy(phenoxy)phosphoryl]amino]propanoic acid measured after 120 mins by 13C-APT spectra analysis. The settings on record: human, 2 h.
Data set [14] in a line: Prodrug activation assessed as carboxypeptidase Y (unknown origin) mediated signal shift at 13.2 ppm by P-NMR spectroscopy. The settings on record: human.
The nature of data set [15]: Prodrug activation assessed as carboxypeptidase Y (unknown origin) mediated metabolite formation at 3.3 ppm by P-NMR spectroscopy. It is filed as ADME. As to conditions: human.
Data set [16] in a line: Prodrug activation assessed as carboxypeptidase Y (unknown origin) mediated (2S)-2-((((2R,3R,4R,5R)-5-(6-amino-9H-purin-9-yl)-3,4-dihydroxy-4-methyltetrahydrofuran-2-yl)methylamino)(phenoxy)phosphorylamino)propanoic acid intermediate formation measured after 5 mins by P-NMR spectroscopy. The settings on record: human.
A short description of data set [17]: Prodrug activation assessed as carboxypeptidase Y (unknown origin) mediated signal shift at 13.5 ppm by P-NMR spectroscopy. As to conditions: human.
The nature of data set [18]: Prodrug activation assessed as carboxypeptidase Y (unknown origin) mediated formation of metabolite from (2S)-2-((((2R,3R,4R,5R)-5-(6-amino-9H-purin-9-yl)-3,4-dihydroxy-4-methyltetrahydrofuran-2-yl)methylamino)(phenoxy)phosphorylamino)propanoic acid intermediate at 3.3 ppm by P-NMR spectroscopy. It is filed as ADME. The settings on record: human.

Each structure is given as a SMILES string. Active and inactive are the calls of the source. The rule behind the calls is not given here.

This is an account of results in ChEMBL document CHEMBL4616597, “Could 5'-N and S ProTide analogues work as prodrugs of antiviral agents?” (Bioorg Med Chem Lett, 2020).

For `COC(=O)[C@H](C)NP(=O)(Oc1ccccc1)SC[C@H]1O[C@@H](n2cnc3c(N)ncnc32)[C@](C)(O)[C@@H]1O` (some centres not stated), the result in data set [1], in data set [3], in data set [4], in data set [9], in data set [11] and in data set [12] was inactive. Further, the Drug metabolism entry in data set [2] is reported as “Metabolite_Detected”; in data set [5], “Metabolite_Notdetected”; in [6], “Metabolite_Detected”; in data set [10], “Metabolite_Detected”; in [13] it was “Metabolite_Detected”. Moreover, the Activity result is “Not Active” in [7] and “Active” in data set [8].
Take `COC(=O)[C@H](C)NP(=O)(NC[C@H]1O[C@@H](n2cnc3c(N)ncnc32)[C@](C)(O)[C@@H]1O)Oc1ccccc1` (some centres not stated): the outcome in data set [1], in data set [3], in data set [4], in data set [9], in data set [11] and in data set [12] was inactive. The Activity entry in [14] is on record as “Active”; in data set [7], “Not Active”; in data set [8] it was “Not Active”; in [17] it was “Active”. In addition, the Drug metabolism result in data set [15], in [16], in data set [10] and in data set [18] was “Metabolite_Detected” each time.
